Measurements published in patent US10046050B2, “Targeting immunotherapy for amyloidosis” (UNIVERSITY OF TENNESSEE RESEARCH FOUNDATION, priority 2014, dated 2018).

Assays:
[1] = tested on: synthetic and naturally-occurring amyloid samples; test: Pull down assay of ^125I-labeled peptides; assay type: binding
Procedure: To evaluate the binding of p66 and p5+14 to synthetic and naturally-occurring amyloid, peptides p66 or p5+14 were radiolabeled with iodine-125 (I-125, ^125I) using oxidation with chloramine T (1 mg/ml in water freshly made. Free 1-125 was removed from the reaction mixture by size exclusion chromatography using a Sephadex G-25 solid phase and a 0.1% (w/v) gelatin in PBS mobile phase. Fractions of ˜250 μl were collected and the radioactivity in each measured using a gamma counter (Packard Cobra II auto-gamma counter). Peptide fractions with peak radioactivity were pooled and used for the “pull-down” assays.
For the pull down assay, ^125I-labeled peptide binding to murine: (m) AA and wild type (WT) liver homogenates (25 μl); rVλ6Wil (AL), Aβ(1-40) and islet amyloid polypeptide (IAPP) synthetic fibrils (25 μg), and; transthyretin-associated (ATTR), ALκ4-Cab and ALλ1-Ship human amyloid extracts (50 μg). The ^125I-peptides were prepared in PBST (0.15 M NaCl) or PBST with 1 M NaCl. Ten μl (˜5 ng, ˜100,000 counts per min [cpm]) of the ^125I-peptide solution was added to each test sample in a 200 μl volume. The reaction mixtures were rotated for 1 h at RT, then centrifuged twice at 16,000×g for 10 min. After each step the supernatants were removed and collected in test tubes. The pellets, obtained following the second spin were resuspended in PBST. The radioactivity in both the supernatant and pellet samples were measured using a Packard Cobra II auto-gamma counter. The bound peptide, expressed as % total was calculated according to: Bound peptide (% total)=(Pellet cpm)/(Pellet cpm+Supernatant cpm)

[2] = tested on: RAW 264.7 murine macrophages; test: Phagocytosis assay of pHrodo green-labeled human ATTR extract; assay type: cell-based; settings: 80 min
Procedure: The phagocytosis of human cardiac ATTR extract induced by peptope and 7D8 was studied using a pH-sensitive fluorescence enhancement assay. The RAW 264.7 murine macrophages (1×10^6 cells per well) were plated into the wells of a 12-well culture dish, containing a glass coverslip, and incubated at 37° C. overnight. On the day of the experiment, 10 μg of pHrodo green-labeled human ATTR extract was mixed with 4 μg of p75 peptide or, as a negative control, an equal volume of PBS (pHrodo green [Thermofisher, Molecular Probes] is a pH sensitive dye that is only fluorescent at pH 4, i.e. in a acidified macrophage endosome/lysosome). The sample was incubated for 30 min. Unbound p75 peptide was removed by washing twice, by centrifugation at 10,000×g using PBS. The 7D8 and MOPC mAb solutions (MOPC served as a negative isotype control) were centrifuged at 10,000×g to remove particulates before adding 10 μg to the peptide-coated ATTR extract. The samples were incubated for 1 h before being washed by centrifugation as above, before being added to the wells of the microplate. The cells were incubated with the amyloid extract for 80 min, at which time Hoescht dye (Thermofisher) was added to the well (to stain the cell nuclei blue), and the mixture incubated for a further 10 min. The coverslips were then washed and mounted on a slide for epifluorescent microscopy and digital image acquisition using blue (nuclei) and green (phagocytosed amyloid) fluorescent filters. Images (original magnification 160×) were analyzed digitally and the area of green fluorescence per cell (“phagocytosis index”) was calculated using 3 or 4 digital images acquired from each coverslip. Approximately 2000 cells were analyzed for each sample.

Substance | binding of ^125I-peptide to amyloid samples ([1]; 0.15 M NaCl) | binding of ^125I-peptide to amyloid samples ([1]; 1.0 M NaCl) | phagocytosis index (area of green fluorescence per cell), 25% Percentile [2] | phagocytosis index (area of green fluorescence per cell), 75% Percentile [2] | phagocytosis index (area of green fluorescence per cell), Maximum [2] | phagocytosis index (area of green fluorescence per cell), Mean [2] | phagocytosis index (area of green fluorescence per cell), Median [2] | phagocytosis index (area of green fluorescence per cell), Minimum [2]
KAQKAQAKQAKQAQKAQKAQAKQAKQAQKAQKAQAKQAKQ SVTVVT KHYAAFPENLLI [p66] | bound equally well | bound equally well |  |  |  |  |  | 
KAQKAQAKQAKQAQKAQKAQAKQAKQAQHEDT [p75, KAQKAQAKQAKQAQKAQKAQAKQAKQAQHEDT] |  |  | 0.5842 | 2.603 | 2.603 | 1.367 | 0.9137 | 0.5842
